Results taken from patent US20030113330A1, “Methods for treating pulmonary fibrosis” (priority 1999, published 2003).
Entries after “also recorded” stand apart in the source; their conditions may differ.

Columns and labels:
[1] = biological target: T1, Caspase 1/ICE (Homo sapiens, UniProt P29466); assay: Caspase 1/ICE activity in intact A549 cells (Ac-YVAD-AMC); type: cell-based; conditions: 50 ng/ml captopril
T1 construct: endogenous in cells; host or cells: A549 human lung epithelial cell line
T1 sequence (P29466 120-404): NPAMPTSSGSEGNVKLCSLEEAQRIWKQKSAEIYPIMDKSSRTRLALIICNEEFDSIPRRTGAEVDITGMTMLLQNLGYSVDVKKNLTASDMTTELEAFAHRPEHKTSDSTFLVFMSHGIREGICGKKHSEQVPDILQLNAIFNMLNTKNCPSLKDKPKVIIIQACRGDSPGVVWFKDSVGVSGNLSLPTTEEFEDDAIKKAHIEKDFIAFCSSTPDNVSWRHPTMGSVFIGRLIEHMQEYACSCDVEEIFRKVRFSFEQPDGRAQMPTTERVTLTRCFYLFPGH
Description: (§1) Caspase Assays. The enzymatic activities of Caspase 1/interleukin-1b-converting enzyme (ICE) and Caspase 3/CPP32/YAMA were determined in intact A549 cell cultures pre-incubated under conditions identical to those used for morphologic assays of apoptosis. After a 20 h incubation with antibodies and/or captopril, cells were trypsinized from the culture vessels and resuspended in serum-free culture medium containing anti-FAS antibodies and/or captopril at the same concentrations as during the preincubation. After one hour, fluorogenic peptide substrates specific to each enzyme were added separately to cuvettes containing cell suspension for measurement of total activity in intact cells. […] Production of fluorescent product over time was monitored in a spectrofluorometer at 380 nm excitation and 450 nm emission. […]
(§2) The same concentration of captopril also abrogated FAS-induced stimulation of Caspase 1 (ICE) (p<0.01 compared to control) and Caspase 3/CPP32/YAMA (p<0.01 compared to FASmAb treatment alone) activities. […] Cells were then analyzed in suspension culture for the activity of Caspase 1/ICE with peptide substrate Ac-YVAD-AMC or for activity of Caspase 3/CPP32/YAMA with peptide substrate Ac-DEVD-AMC as described above. […]

[2] = biological target: T2, Caspase 3/CPP32/YAMA (Homo sapiens, UniProt P42574); assay: Caspase 3/CPP32/YAMA activity in intact A549 cells (Ac-DEVD-AMC); type: cell-based; conditions: 50 ng/ml captopril
T2 construct: endogenous in cells; host or cells: A549 human lung epithelial cell line
T2 sequence (P42574 29-277): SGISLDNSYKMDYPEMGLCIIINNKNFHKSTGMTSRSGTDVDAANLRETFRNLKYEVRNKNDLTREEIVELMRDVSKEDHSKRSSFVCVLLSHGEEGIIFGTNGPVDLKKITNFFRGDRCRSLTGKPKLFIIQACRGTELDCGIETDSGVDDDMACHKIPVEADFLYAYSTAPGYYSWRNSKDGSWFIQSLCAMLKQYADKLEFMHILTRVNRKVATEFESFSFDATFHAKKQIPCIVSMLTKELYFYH
Description: as §1, §2

## C[C@H](CS)C(=O)N1CCC[C@H]1C(=O)O [captopril]
[1]
  effect on FAS-inducible Caspase 1 activity: completely abrogated
[2]
  effect on FAS-inducible Caspase 3 activity: significantly decreased; also recorded: abrogated
